Source: US20200352918A1, “COMPOUNDS AND METHODS FOR TREATING OR PREVENTING FIBROSIS” (priority 2019, published 2020)

Key:
[1] = test system: iFA phenotype of mesenchymal-like cells on 13 kPa hydrogels; assay: iFA-prevention phenotypic high-content drug screen (iFA model); type: cell-based, human
Description: Mesenchymal-like cells were cultured on 13 kPa functionalized polyacrylamide gels that were prepared as follows. 187.5 μl of 40% acrylamide, 60 μl of 2% bis-acrylamide and 8.55 μl of sodium bisulfate in a final volume of 990 μl of water was incubated for 20 min at room temperature to degas the mixture. To this mixture, 0.10% ammonium persulfate and 0.15% TEMED were added, mixed and 100 μl of the solution was added onto a 0.4% 3-(Trimethoxysily) propyl methacrylate pH 3.5 treated coverslip. A 2% dimethyl dichlorosilane in chloroform treated round glass coverslip was then inverted on the acrylamide solution and allowed to polymerize for 15 min between the two surfaces. The top coverslip was gently removed, and the bottom coverslips with the hydrogel were transferred to appropriate multi-well low adherent tissue culture plate containing coupling buffer (0.1 M sodium phosphate dibasic, 0.1 M sodium phosphate monobasic) pH 8. To functionalize the hydrogel, 1 part of 0.1 M p-benzoquinone in dioxane was added to the hydrogels containing 4 parts of coupling buffer and incubated at 37° C. for 30 min. The gel was then successively washed with 20% dioxane in water, water, 0.1 M sodium acetate buffer at pH 4.0 containing 1.0 M sodium chloride, 0.1 M sodium bicarbonate solution at pH 8.5 containing 1.0 M sodium chloride, and finally with coupling buffer at pH 7.5. The hydrogels were then coated with 0.1% gelatin for 2 hrs prior to seeding the cells. Cells were seeded at a density of 3000 cells/cm^2.
A phenotypic high-content drug screen was prepared to identify compounds capable of preventing the iFA phenotype in a 96-well format. An ImageXpress XL high-throughput imager with a 4× Plan objective (N/A 0.20) was used with image based focusing. Briefly, 100 μL media were plated in each well of 96 well plate using a Thermo Multidrop non-contact dispenser. Using a custom V&P pin tool mounted to a Beckman FX liquid handler, 1.5 μL compounds or DMSO were added. Mesenchymal-like cells were added as a suspension using the Multidrop at a density of 3.5×10^3 cells/well. The resulting compound concentration was 10 μM. Cells were imaged after 7 days of incubation at 37° C. and 5% CO2: A final of 0.5 μg/ml of Calcein AM and/or 10 μg/ml propidium iodide (viability dye) with 1 μg/ml Hoechst 33342 were added and imaged using the ImageXpress XL system. Data mining was performed using a custom module consisting of the following steps: The image background was removed using a top-hat filter with 25 μm round shape polisher. Next, cellular aggregates and individual spindle-shaped cells were identified. Aggregates of cells were defined by size with a cut-off of 60 to 200 micron and an intensity of at least 200 gray scales over background. Individual spindle-shaped cells were identified as smaller objects with cut-offs from 15 to 100 micron and a lower intensity of at least 70 gray scales over background.
Additional morphometric measurements were made by counting labeled cell nuclei and measuring total area covered with cells per well. The data resulting from the screen were batch exported through MetaXpress and uploaded into a Collaborative Drug Discovery (CDD) cloud based database (Ekins and Bunin, 2013, Methods in molecular biology 993, 139-154.). Hits were selected on a cut-off of more than 3 standard deviations from mean using data normalized to reference wells in each plate. IC50 values (the half maximal inhibitory concentration) from confirmation experiments were calculated from dose-response signal curves using the Prism software (GraphPad Software).
Signal-to-background (S/B) ratio, standard variation and variation coefficients were calculated as the signal of DMSO treated wells divided by the signal of the hit compound (AA5) treated wells. […]

[2] = test system: iFA phenotype of mesenchymal-like cells on 13 kPa hydrogels; assay: iFA resolution screen (reversal of fibrosis) in the iFA model; type: cell-based, human; details: phenotype formed over 10 days, then compounds added
Description: Signal-to-background (S/B) ratio, standard variation and variation coefficients were calculated as the signal of DMSO treated wells divided by the signal of the hit compound (AA5) treated wells. Z′ values were used to measure assay quality which was calculated by the formula of Z′=1−3(SDTotal+SDBackground)/(MeanTotal−MeanBackground)(Inglese et al., 2006) where SDTotal and MeanTotal are the standard deviation and mean of signal for DMSO treated wells, and SDBackground and MeanBackground are the standard deviation and mean of signal for AA5 treated wells. Data normalization and curve fitting were performed as previously reported (Kariv et al., 1999, J Biomol Screen 4, 27-32.). Z′ values were obtained for the number of cellular aggregates and also calculated a phenotypic cell index as the product of cell number x area/Log(number of iFA aggregates+5). Secondary screening using α-SMA and collagen deposition was employed to further ensure efficacy and resolution of the iFA phenotype of the compounds. For the resolution screen, cells were seeded in a 96-well plate as mentioned above and compounds were added at day 13 to analyze their capacity to resolve the iFA phenotype using the same readouts as above. Dose response experiments were carried out as in the secondary screen but with at least 12 steps of a 1:1 dilution resulting in final compound concentrations from 500 μM to high nanomolar ranges.
The primary assay involved plating together the iPSCs and Table 1 compounds sourced from the library on day 1 on the hydrogel and examining the phenotype on day 7 of the culture as described herein. The secondary screen repeated the assay using compound sourced commercially or from additional library materials. The dose response refers to a 20 point dose course that ranges from picomolar to millimolar concentrations. […] As described herein, the cellular phenotype parameters evaluated included size, fluorescence intensity of the iFA phenotype, the shape factor of the cells/aggregates, and the cells' viability in the presence of viability dyes (Calcein AM).

CNC(C)Cc1cccs1 (stereo not shown) [Methiopropamine]
Dose response ([1]; 20 point dose course, picomolar to millimolar): +++ (+++ = strong effect)
Efficacy in secondary screen ([1]; assay repeated with compound sourced commercially or from additional library materials): +++ (+++ = strong effect)
Efficacy in primary screen ([1]; library compound plated with cells on day 1 on hydrogel, phenotype on day 7, 10 μM): +++ (+++ = strong effect)
Reversal of fibrosis [2]: Yes
